Results on 26 molecules are retold here after patent publication US4743585A (Warner-Lambert Company, priority 1986, dated 1988).

Where a name gives a salt, the structure may show the parent alone.

This test deals with T1, renin (Homo sapiens, UniProt P00797).
T1 sequence (P00797 67-406): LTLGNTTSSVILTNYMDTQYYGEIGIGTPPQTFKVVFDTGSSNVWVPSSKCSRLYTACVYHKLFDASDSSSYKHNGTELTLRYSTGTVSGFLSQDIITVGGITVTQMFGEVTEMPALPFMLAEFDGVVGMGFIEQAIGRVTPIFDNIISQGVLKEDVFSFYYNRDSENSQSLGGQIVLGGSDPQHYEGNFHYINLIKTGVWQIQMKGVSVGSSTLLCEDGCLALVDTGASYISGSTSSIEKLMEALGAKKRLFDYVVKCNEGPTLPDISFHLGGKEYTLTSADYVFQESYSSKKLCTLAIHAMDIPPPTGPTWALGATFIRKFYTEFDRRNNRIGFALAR
Briefly: in vitro renin inhibitory activity, standard radioimmunoassay for angiotensin I. Type of test: biochemical. As to the method:
The effectiveness of the aforementioned compounds is determined by a test for in vitro renin inhibitory activity. This activity is determined by a standard radioimmunoassay for angiotensin I. In this assay the enzyme, renin, incubated for two hours at 37° in the presence of a substrate, angiotensinogen, generates the product, angiotensin I. Test compounds are added to the incubation mixture.
A word on the IC50: it is the concentration at which inhibition is half-maximal. A higher IC50 goes with lower potency. `CC(C)CC(=O)N[C@H](CN[C@H](C(=O)N[C@@H](CC(C)C)[C@@H](O)CC(=O)N[C@@H](C)C(=O)N[C@@H](CC(C)C)[C@@H](O)CC(=O)NCc1ccccc1)C(C)C)C(C)C` (relative stereo) [Example 52, 5,8,11,16,19-pentaazatricosan-23-amide, 13,2-dihydroxy-2,17-dimethyl-6,9-bis(1-methylethyl)-12,20-bis(2-methylpropyl)-4,10,15,18-tetraoxo-N-(phenylmethyl)-,:6S-(6R*,9R*,12R*,13R*,17R*,20R*,21R*):-,acetate (salt) (2:3)] returned an IC50 of 18 µM.

Consider `CC(C)C[C@H](NC(=O)CCC(=O)C(Cc1ccccc1)NC(=O)OC(C)(C)C)[C@@H](O)CC(=O)N[C@@H](C)C(=O)N[C@@H](CC(C)C)[C@@H](O)CC(=O)NCc1ccccc1` (stereo partly drawn) [Example 50, 5,13-dihydroxy-9-methyl-6,14-bis(2-methylpropyl)-3,8,11,16,19-pentaoxo-1-phenyl-20-(phenylmethyl)-2,7,10,15,21-pentaazadocosan-22-oic acid, 1,1-dimethylethyl ester; (5S,7S,13S,14S,20RS)], for which the IC50 was determined as 30 µM.

As to `CC(C)CC(=O)N[C@@H](Cc1ccccc1)C(=O)N[C@@H](Cc1c[nH]cn1)C(=O)N[C@@H](CC1CCCCC1)C(O)CCC(=O)NCc1ccccc1` (stereo partly drawn) [Example 27, L-histidinamide,N-(3-methyl-1-oxobutyl)-L-phenylalanyl-N-[1-(cyclohexylmethyl)-2-hydroxy-5-oxo-5-[(phenylmethyl)amino]pentyl]], the IC50 stood at 0.25 µM.

For the molecule `CC(C)C[C@H](NC(=O)C/C=C/[C@H](Cc1ccccc1)NC(=O)OC(C)(C)C)[C@@H](O)CC(=O)N[C@@H](C)C(=O)N[C@@H](CC(C)C)[C@@H](O)CC(=O)NCc1ccccc1` [Example 1, [5S-[5R*,6R*,9R*,13R*,14R*(E),20R*]]-5,13-dihydroxy-9-methyl-6,14-bis(2-methylpropyl)-3,8,11,16-tetraoxo-1-phenyl-20-(phenylmethyl)-2,7,10,15,21-pentaazadocos-18-en-22-oic acid, 1,1-dimethylethyl ester], the IC50 is 8.2 µM.

`CC(C)C[C@H](NC(=O)C[C@H](O)[C@H](CC1CCCCC1)NC(=O)CCC[C@H](Cc1ccccc1)NC(=O)OC(C)(C)C)C(=O)NCc1cccc(CN)c1` [Example 36] yielded an IC50 of 63 µM. Against the preceding molecule, the IC50 is about 7.7-fold higher.

For `CC(C)CC(=O)N[C@@H](Cc1ccccc1)C(=O)N[C@@H](Cc1c[nH]cn1)C(=O)N[C@@H](CC1CCCCC1)C(O)CC(CC(C)C)C(=O)NCc1cccc(CN)c1` (some centres unmarked) [Example 81], the IC50 came to 0.054 µM.

`CC(C)C[C@H](NC(=O)C[C@H](O)[C@H](CC(C)C)NC(=O)[C@H](Cc1cncn1COCc1ccccc1)NC[C@H](Cc1ccccc1)NC(=O)OC(C)(C)C)C(=O)NCc1ccccc1` [Example 62, BOC-PHE[CH2 NH]HIS(BOM)-STA-LEU-NHCH2 Ph]: the IC50 was 16 µM. This IC50 is about 300-fold higher than that of the molecule before.

In turn, `CC[C@H](C)[C@H](NC[C@@H](NC(=O)CC(C)C)[C@@H](C)CC)C(=O)N[C@@H](CC(C)C)[C@@H](O)CC(=O)N[C@@H](CC(C)C)C(=O)NCc1ccccc1` [Example 73, 3,8,11,14-tetraazaoctadecanamide, 6-hydroxy-17-methyl-10,13-bis(1-methylpropyl)-2,7-bis(2-methylpropyl)-4,9,15-trioxo-N-(phenylmethyl)] yielded a half-inhibitory concentration (IC50) of 30 µM.

Regarding `CC(C)CC(=O)N[C@@H](Cc1ccccc1)C(=O)N[C@H](CN[C@@H](CC(C)C)[C@@H](O)CC(=O)N[C@@H](CC(C)C)C(=O)NCc1ccccc1)Cc1c[nH]cn1` [Example 66, 3,8,11,14-Tetraazaoctadecanamide, 6-hydroxy-10-(1H-imidazol-4-ylmethyl)-17-methyl-2,7-bis(2-methylpropyl)-4,12,15-triazo-N,13-bis(phenylmethyl)-, [2S-(2R*,6R*,7R*,10R*,13R*)]], the IC50 worked out at 3.5 µM.

As for `CC(C)CC(=O)N[C@@H](Cc1ccccc1)C(=O)N[C@@H](Cc1c[nH]cn1)C(=O)N[C@@H](CC(C)C)[C@@H](O)CC(=O)N[C@@H](CC(C)C)CN(Cc1ccccc1)C(=O)OCc1ccccc1` [Example 57, L-histidinamide. N-(3-methyl-1-oxobutyl)-L-phenylalanyl-N-[2-hydroxy-4-[[3-methyl-1-[[[(phenylmethoxy)carbonyl](phenylmethyl)amino]methyl]butyl]amino]-1-(2-methylpropyl)-4-oxobutyl]-, [1S-[1R*,2R*,4(R*)]]-], half-maximal inhibition (IC50) was put at 3 µM.

For `CC(C)CC(=O)N[C@@H](Cc1ccccc1)C(=O)N[C@@H](Cc1c[nH]cn1)C(=O)N[C@@H](CC1CCCCC1)C(O)CCC(=O)NCc1cccc(CN)c1` (some centres unmarked) [Example 80], the IC50 is 2.1 µM.

`CC(C)C[C@H](NC(=O)C[C@H](O)[C@H](CC1CCCCC1)NC(=O)C/C=C/[C@H](Cc1ccccc1)NC(=O)OC(C)(C)C)C(=O)NCc1cccc(CNC(=O)OCc2ccccc2)c1` [Example 8]: the IC50 was found to be 8 µM.

In the case of `CC(C)CC(=O)N[C@@H](Cc1ccccc1)C(=O)N[C@@H](Cc1c[nH]cn1)C(=O)N[C@@H](CC1CCCCC1)C(O)CC(CC(C)C)C(=O)NCc1ccccc1` (some centres unmarked) [Example 78], it took 0.24 µM to reach half-maximal inhibition (IC50).

For the molecule `CCC(C)CNC(=O)CCC(O)[C@H](Cc1ccccc1)NC(=O)[C@H](Cc1c[nH]cn1)NC(=O)[C@H](Cc1ccccc1)NC(=O)OC(C)(C)C` (some centres unmarked) [Example 85, BOC-PHE-HIS-PHE[CHOHCH2 ]GLY-NHCH2 CH(CH3)CH2 CH3], the IC50 is 0.075 µM.

For `CC(C)C[C@H](NC(=O)C(/C=C/[C@H](Cc1ccccc1)NC(=O)OC(C)(C)C)Cc1ccccc1)[C@@H](O)CC(=O)N[C@@H](C)C(=O)N[C@@H](CC(C)C)[C@@H](O)CC(=O)NCc1ccccc1` (some centres unmarked) [Example 2, (E)-5,13-dihydroxy-9-methyl-6,14-bis(2-methylpropyl)-3,8,11,16-tetraoxo-1-phenyl-17,20-bis(phenylmethyl)-2,7,10,15,21-pentaazadocos-18-en-22-oic acid, 1,1-dimethylethyl ester], the IC50 is 12 µM.

`CC(C)CC(=O)N[C@@H](Cc1ccccc1)C(=O)N[C@@H](Cc1c[nH]cn1)C(=O)N[C@@H](CC1CCCCC1)C(O)CCC(=O)N[C@@H](CC(C)C)C(=O)NCc1ccccc1` (some centres unmarked) [Example 28] registered an IC50 of 0.014 µM.

In turn, `CC(C)CC(=O)N[C@H](CN[C@H](C(=O)N[C@@H](CC(C)C)[C@@H](O)CC(=O)NCc1ccccc1)C(C)C)C(C)C` [Example 54, IVA-VAL[CH2 NH]VAL-STA-NHCH2 Ph] yielded an IC50 of 30 µM. This IC50 lies about 2100-fold higher than the previous one.

The molecule `CC(C)C[C@H](NC(=O)[C@H](C)NC(=O)C[C@H](O)[C@H](CC(C)C)NC(=O)[C@H](Cc1ccccc1)NC[C@H](Cc1ccccc1)NC(=O)OC(C)(C)C)[C@@H](O)CC(=O)NCc1ccccc1` [Example 59, BOC-PHE[CH2 NH]PHE-STA-ALA-STA-NHCH2 Ph] registered a half-inhibitory concentration (IC50) of 5.6 µM. This IC50 is about 5.4-fold lower than that of the molecule before.

Regarding `CC(C)CC(=O)N[C@@H](Cc1ccccc1)C(=O)N[C@@H](Cc1c[nH]cn1)C(=O)N[C@H](CN[C@@H](CC(C)C)C(=O)NCc1ccccc1)CC1CCCCC1` [Example 70, L-histidinamide, N-(3-methyl-1-oxobutyl)-L-phenylalanyl-N-[1-cyclohexylmethyl]-2-[[3-methyl-1-[[(phenylmethyl)amino]carbonyl]butyl]amino]ethyl]-, [S-(R*,R*)]], 0.28 µM corresponded to half-maximal inhibition (IC50).

`CC(C)CC(CC(O)[C@H](CC1CCCCC1)NC(=O)OC(C)(C)C)C(=O)N[C@@H](CC(C)C)[C@@H](O)CC(=O)N[C@@H](CC(C)C)C(=O)NCc1ccccc1` (some centres unmarked) [Example 79] came in with an IC50 of 3.8 µM. Compared with the last molecule, the IC50 is about 14-fold higher.

For the molecule `CC(C)CC(NC(=O)CC(O)C(CC(C)C)NC(=O)CC(O)C(O)C(CC1CCCCC1)NC(=O)OC(C)(C)C)C(=O)NCc1ccccc1` (single isomer, unassigned) [Example 17, 15-(cyclohexylmethyl)-8,13,14-trihydroxy-4,9-bis(2-methylpropyl)-3,6,11-trioxo-1-phenyl-2,5,10,16-tetraazaheptadecan-17-oic acid, 1,1-dimethylethyl ester], the IC50 was found to be 6.5 µM.

For `CC(C)CC(=O)N[C@@H](CC(C)C)C(=O)CC(Cc1ccccc1)C(=O)N[C@@H](CC(C)C)[C@@H](O)CC(=O)N[C@@H](CC(C)C)C(=O)NCc1ccccc1` (single isomer, unassigned) [Example 32], the half-inhibitory concentration (IC50) is 7.1 µM. This IC50 and that of the molecule before are within 1.5-fold of each other.

Molecule `CC(C)CC(=O)N[C@@H](Cc1ccccc1)C(=O)N[C@@H](Cc1c[nH]cn1)C(=O)N[C@@H](CC(C)C)[C@@H](O)CC(=O)N[C@H](CNCc1ccccc1)CC(C)C` [Example 58, IVA-PHE-HIS-STA-LEU[CH2 NH]CH2 Ph] showed an IC50 of 1.9 µM.

In the case of `CCC(C)CNC(=O)CCC(O)[C@H](CC1CCCCC1)NC(=O)[C@H](Cc1c[nH]cn1)NC(=O)[C@H](Cc1cccc2ccccc12)NC(=O)OCc1ccccc1` (some centres unmarked) [Example 77], inhibition was half-maximal at 1.6 µM (IC50).

Molecule `CC(C)CC(=O)NC(CCCC(=O)NC(CC(C)C)C(O)CC(=O)NC(CC(C)C)C(=O)NCc1ccccc1)Cc1ccccc1` (centres unmarked) [Example 47, N-[2-hydroxy-4-[[3-methyl-1-[[(phenylmethyl)amino]carbonyl]butyl]amino]-1-(2-methylpropyl)-4-oxobutyl]-δ-[(3-methyl-1-oxobutyl)amino]benzenehexanamide] showed an IC50 of 26 µM.

In the case of `CC(C)CC(=O)NC(Cc1ccccc1)C[S+]([O-])C(Cc1ccccc1)C(=O)NC(CC(C)C)C(O)CC(=O)NC(C)C(=O)NC(CC(C)C)C(O)CC(=O)NCc1ccccc1` (centres unmarked) [Example 40, 13,21-dihydroxy-2,17-dimethyl-12,20-bis(2-methylpropyl)-4,10,15,18-tetraoxo-N,6,9-tris(phenylmethyl)-8-thia-5,11,16,19-tetraazatricosan-23-amide-8-oxide], the IC50 worked out at 2 µM.
